Results: article PMC9356726 (Molecular Biology and Evolution, 2022)

System: AlmA
Format: biochemical, Streptomyces sp. A012304
Details: succinyl-CoA regenerated, 20 mM HEPES-NaOH pH 7.5, 20 μM PLP, 3 mM MgCl2, 37°C, 0.01 μM enzyme

Q: With `N[C@@H](CO)C(=O)O` [serine] as the compound, how does the Km read?
A: 6.8 ± 1.4 mM
